Read-outs that look alike come from different tables or passages of the source.
How the values were obtained:
BRD4 (BDII_E352-M457) = molecular target: T1, BRD4 (BDII_E352-M457) (Homo sapiens, UniProt O60885); assay: TR-FRET bromodomain binding assay, second bromodomain of BRD4; conditions: His-tagged BD2, 30 nM Alexa647 probe; TR-FRET protocol A-E given per row
T1 construct: proliferation; Protocol; made in house
Summary of the method: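 His-tagged BRD4 BD2 ([…]) competed against an Alexa647-labelled BET-inhibitor probe in TR-FRET. Buffer was 20 mM sodium phosphate pH 6.0, 50 mM NaCl, 1 mM EDTA, 0.01% Triton X-100, 1 mM DTT, with method D DMSO series of 2.5 mM–800 nM (stock range). IC50 from 4-parameter fit, Ki from probe Kd and concentration.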

[1] = test system: breast cancer cell line MX-1; assay: MX-1 cell line proliferation assay; format: cell-based; conditions: MX-1 cells, 3-day proliferation assay, Cell Titer Glo, read-out: Cellular proliferation EC50
Summary of the method: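 Cells seeded at 5000/well in RPMI 1640 with 10% FBS, allowed to adhere overnight at 37 °C, then exposed to compound at final 0.0001–3 μM for 3 days. Viability read by Cell Titer Glo luminescence, normalized to DMSO controls; EC50 from sigmoidal curve fit.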

BRD4 (BDI_K57-E168) = molecular target: T2, BRD4 (BDI_K57-E168) (Homo sapiens, UniProt O60885); assay: TR-FRET bromodomain binding assay, first bromodomain of BRD4; conditions: His-tagged BD1, 100 nM Alexa647 probe; TR-FRET protocol A-E given per row
T2 construct: BD1: amino acids K57-E168; made in house
Summary of the method: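 His-tagged BRD4 BD1 (K57-E168), 8 nM, with 1 nM Eu-anti-His antibody and 100 nM Alexa647-labelled BET-inhibitor probe in pH 6.0 phosphate buffer, 2% DMSO. TR-FRET read after 1 h at room temperature. IC50 from 4-parameter fit, converted to Ki using probe Kd and concentration.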

Row | Ki (BRD4 (BDII_E352-M457)) | EC50 ([1]; Homo sapiens, MX1, 72 h) | Ki (BRD4 (BDI_K57-E168)) | EC50 [1] | Structure (SMILES)
1 | 1100 nM | 1020 nM | 216 nM | – | Cn1cc(-c2cc(NCc3ccc(OCc4ccccc4)cc3)ccc2Oc2ccc(F)cc2F)c2cc[nH]c(=O)c21 [Example 170, 3-[5-{[4-(benzyloxy)benzyl]amino}-2-(2,4-difluorophenoxy)phenyl]-1-methyl-1,6-dihydro-7H-pyrrolo[2,3-c]pyridin-7-one]
2 | 1250 nM | 1400 nM | 281 nM | – | Cn1cc(-c2cc(CNS(=O)(=O)Cc3ccc(Cl)cc3)ccc2Oc2ccc(F)cc2F)c2cc[nH]c(=O)c21 [Example 131, 1-(4-chlorophenyl)-N-[4-(2,4-difluorophenoxy)-3-(1-methyl-7-oxo-6,7-dihydro-1H-pyrrolo[2,3-c]pyridin-3-yl)benzyl]methanesulfonamide]
3 | 128 nM | > 1000 nM | 65.8 nM | – | Cn1cc(-c2cc(NS(=O)(=O)Cc3cc(F)ccc3Cl)ccc2Oc2ccc(F)cc2F)c2cc[nH]c(=O)c21 [Example 181, 1-(2-chloro-5-fluorophenyl)-N-[4-(2,4-difluorophenoxy)-3-(1-methyl-7-oxo-6,7-dihydro-1H-pyrrolo[2,3-c]pyridin-3-yl)phenyl]methanesulfonamide]
4 | 817 nM | 1820 nM | 490 nM | – | Cc1noc(C)c1S(=O)(=O)NCc1ccc(Oc2ccc(F)cc2F)c(-c2cn(C)c3c(=O)[nH]ccc23)c1 [Example 140, N-[4-(2,4-difluorophenoxy)-3-(1-methyl-7-oxo-6,7-dihydro-1H-pyrrolo[2,3-c]pyridin-3-yl)benzyl]-3,5-dimethyl-1,2-oxazole-4-sulfonamide]
5 | 1330 nM | 1420 nM | 1350 nM | – | COC1CCN(Cc2ccc(Oc3ccc(F)cc3F)c(-c3cn(C)c4c(=O)[nH]ccc34)c2)CC1 [Example 115, 3-{2-(2,4-difluorophenoxy)-5-[(4-methoxypiperidin-1-yl)methyl]phenyl}-1-methyl-1,6-dihydro-7H-pyrrolo[2,3-c]pyridin-7-one]
6 | 6.5 nM | 36.8 nM | 3.63 nM | – | CCS(=O)(=O)Nc1ccc(Oc2ccc(F)cc2F)c(-c2cn(C)c3c(=O)[nH]c(C(=O)NCC4CCOC4)cc23)c1 (stereo not drawn) [Example 199, 3-{2-(2,4-difluorophenoxy)-5-[(ethylsulfonyl)amino]phenyl}-1-methyl-7-oxo-N-(tetrahydrofuran-3-ylmethyl)-6,7-dihydro-1H-pyrrolo[2,3-c]pyridine-5-carboxamide]
7 | 1240 nM | 658 nM | 249 nM | – | Cc1ccc(CS(=O)(=O)NCc2ccc(Oc3ccc(F)cc3F)c(-c3cn(C)c4c(=O)[nH]ccc34)c2)cc1 [Example 132, N-[4-(2,4-difluorophenoxy)-3-(1-methyl-7-oxo-6,7-dihydro-1H-pyrrolo[2,3-c]pyridin-3-yl)benzyl]-1-(4-methylphenyl)methanesulfonamide]
8 | 382 nM | 1510 nM | 776 nM | – | Cn1cc(-c2cc(CNCC3CC3)ccc2Oc2ccc(F)cc2F)c2cc[nH]c(=O)c21 [Example 118, 3-[5-{[(cyclopropylmethyl)amino]methyl}-2-(2,4-difluorophenoxy)phenyl]-1-methyl-1,6-dihydro-7H-pyrrolo[2,3-c]pyridin-7-one]
9 | 1.3 nM | 10.7 nM | 0.9 nM | – | CCS(=O)(=O)Nc1ccc(Oc2ccc(F)cc2F)c(-c2cn(C)c3c(=O)[nH]c(C(=O)NCc4cccnc4)cc23)c1 [Example 192, 3-{2-(2,4-difluorophenoxy)-5-[(ethylsulfonyl)amino]phenyl}-1-methyl-7-oxo-N-(pyridin-3-ylmethyl)-6,7-dihydro-1H-pyrrolo[2,3-c]pyridine-5-carboxamide]
10 | 495 nM | 980 nM | 64 nM | – | Cn1cc(-c2cc(CNS(=O)(=O)c3ccccc3)ccc2Oc2ccc(F)cc2F)c2cc[nH]c(=O)c21 [Example 141, N-[4-(2,4-difluorophenoxy)-3-(1-methyl-7-oxo-6,7-dihydro-1H-pyrrolo[2,3-c]pyridin-3-yl)benzyl]benzenesulfonamide]

The next lines start with the compound.

Row | Structure (SMILES) | Ki (BRD4 (BDII_E352-M457)) | EC50 ([1]; Homo sapiens, MX1, 72 h) | Ki (BRD4 (BDI_K57-E168)) | EC50 [1]
11 | CCS(=O)(=O)c1ccc(Oc2ccc(Cl)cc2)c(-c2cn(C)c3c(=O)[nH]ccc23)c1 [Example 48, 3-[2-(4-chlorophenoxy)-5-(ethylsulfonyl)phenyl]-1-methyl-1,6-dihydro-7H-pyrrolo[2,3-c]pyridin-7-one] | 40 nM | 114 nM | 14 nM | –
12 | CN(C)C1CCN(Cc2ccc(Oc3ccc(F)cc3F)c(-c3cn(C)c4c(=O)[nH]ccc34)c2)CC1 [Example 113, 3-[2-(2,4-difluorophenoxy)-5-{[4-(dimethylamino)piperidin-1-yl]methyl}phenyl]-1-methyl-1,6-dihydro-7H-pyrrolo[2,3-c]pyridin-7-one] | 506 nM | 1630 nM | 583 nM | –
13 | Cn1cc(-c2cc(S(C)(=O)=O)ccc2OCC2COC2)c2cc[nH]c(=O)c21 [Example 30, 1-methyl-3-[5-(methylsulfonyl)-2-(oxetan-3-ylmethoxy)phenyl]-1,6-dihydro-7H-pyrrolo[2,3-c]pyridin-7-one] | 312 nM | > 3000 nM | 45 nM | –
14 | Cn1cc(-c2cc(S(C)(=O)=O)ccc2OCC2CCC(F)(F)CC2)c2cc[nH]c(=O)c21 [Example 41, 3-{2-[(4,4-difluorocyclohexyl)methoxy]-5-(methylsulfonyl)phenyl}-1-methyl-1,6-dihydro-7H-pyrrolo[2,3-c]pyridin-7-one] | 406 nM | 403 nM | 63 nM | –
15 | CC(C)S(=O)(=O)Nc1ccc(Oc2ccc(F)cc2F)c(-c2cn(C)c3c(=O)[nH]ccc23)c1 [Example 3, N-[4-(2,4-difluorophenoxy)-3-(1-methyl-7-oxo-6,7-dihydro-1H-pyrrolo[2,3-c]pyridin-3-yl)phenyl]propane-2-sulfonamide] | 43 nM | 161 nM | 26 nM | –
16 | CCS(=O)(=O)C(C)c1ccc(Oc2ccc(F)cc2F)c(-c2cn(C)c3c(=O)[nH]ccc23)c1 (single isomer, unassigned) [Example 57] | 37 nM | – | 14 nM | 66 nM
17 | Cn1cc(-c2cc(CS(=O)(=O)N3CCOCC3)ccc2Oc2ccc(F)cc2F)c2cc[nH]c(=O)c21 [Example 95, 3-{2-(2,4-difluorophenoxy)-5-[(morpholin-4-ylsulfonyl)methyl]phenyl}-1-methyl-1,6-dihydro-7H-pyrrolo[2,3-c]pyridin-7-one] | 2.1 nM | 8 nM | 4.2 nM | –
18 | CCS(=O)(=O)c1ccc(Oc2ccccc2C#N)c(-c2cn(C)c3c(=O)[nH]ccc23)c1 [Example 83, 2-[4-(ethylsulfonyl)-2-(1-methyl-7-oxo-6,7-dihydro-1H-pyrrolo[2,3-c]pyridin-3-yl)phenoxy]benzonitrile] | 46 nM | 100 nM | 43 nM | –
19 | CCS(=O)(=O)Nc1ccc(O[C@H]2CC[C@H](OC)CC2)c(-c2cn(C)c3c(=O)[nH]ccc23)c1 [Example 6, N-{4-[(trans-4-methoxycyclohexyl)oxy]-3-(1-methyl-7-oxo-6,7-dihydro-1H-pyrrolo[2,3-c]pyridin-3-yl)phenyl}ethanesulfonamide] | 57 nM | 36 nM | 2.8 nM | –
20 | Cn1cc(-c2cc(S(C)(=O)=O)ccc2OC2CCCOC2)c2cc[nH]c(=O)c21 (stereo not drawn) [Example 26, 1-methyl-3-[5-(methylsulfonyl)-2-(tetrahydro-2H-pyran-3-yloxy)phenyl]-1,6-dihydro-7H-pyrrolo[2,3-c]pyridin-7-one] | 60 nM | 123 nM | 7 nM | –
21 | CCS(=O)(=O)C(C)(C)c1ccc(Oc2ccc(F)cc2F)c(-c2cn(C)c3c(=O)[nH]ccc23)c1 [Example 54, 3-{2-(2,4-difluorophenoxy)-5-[2-(ethylsulfonyl)propan-2-yl]phenyl}-1-methyl-1,6-dihydro-7H-pyrrolo[2,3-c]pyridin-7-one] | 26 nM | 21 nM | 3.4 nM | –
22 | CCS(=O)(=O)c1ccc(Oc2ccc(C#N)cc2)c(-c2cn(C)c3c(=O)[nH]ccc23)c1 [Example 78, 4-[4-(ethylsulfonyl)-2-(1-methyl-7-oxo-6,7-dihydro-1H-pyrrolo[2,3-c]pyridin-3-yl)phenoxy]benzonitrile] | 73 nM | 88 nM | 20 nM | –
23 | Cn1cc(-c2cc(S(C)(=O)=O)ccc2OCC2CC2(F)F)c2cc[nH]c(=O)c21 (stereo not drawn) [Example 42, 3-{2-[(2,2-difluorocyclopropyl)methoxy]-5-(methylsulfonyl)phenyl}-1-methyl-1,6-dihydro-7H-pyrrolo[2,3-c]pyridin-7-one] | 79 nM | 221 nM | 13 nM | –
24 | CN(CC1CC1)c1ccc(S(C)(=O)=O)cc1-c1cn(C)c2c(=O)[nH]ccc12 [Example 45, 3-{2-[(cyclopropylmethyl)(methyl)amino]-5-(methylsulfonyl)phenyl}-1-methyl-1,6-dihydro-7H-pyrrolo[2,3-c]pyridin-7-one] | 70 nM | 279 nM | 37 nM | –

Reference: patent publication US9321764B2, “Dihydro-pyrrolopyridinone inhibitors” (AbbVie Inc., priority 2013, dated 2016)
